{"source": "patent US9505763B2", "about": "“Cancer treatment using BMP inhibitor” (Vanderbilt University, priority 2011, dated 2016)", "key": {"[1]": {"target": "T1, constitutively active alk3 (ca-alk3) (Homo sapiens, UniProt P36894, Q233D)", "T1 construct": "expressed in transfected cells; host or cells: H1299", "T1 sequence (P36894 24-532 Q233D)": "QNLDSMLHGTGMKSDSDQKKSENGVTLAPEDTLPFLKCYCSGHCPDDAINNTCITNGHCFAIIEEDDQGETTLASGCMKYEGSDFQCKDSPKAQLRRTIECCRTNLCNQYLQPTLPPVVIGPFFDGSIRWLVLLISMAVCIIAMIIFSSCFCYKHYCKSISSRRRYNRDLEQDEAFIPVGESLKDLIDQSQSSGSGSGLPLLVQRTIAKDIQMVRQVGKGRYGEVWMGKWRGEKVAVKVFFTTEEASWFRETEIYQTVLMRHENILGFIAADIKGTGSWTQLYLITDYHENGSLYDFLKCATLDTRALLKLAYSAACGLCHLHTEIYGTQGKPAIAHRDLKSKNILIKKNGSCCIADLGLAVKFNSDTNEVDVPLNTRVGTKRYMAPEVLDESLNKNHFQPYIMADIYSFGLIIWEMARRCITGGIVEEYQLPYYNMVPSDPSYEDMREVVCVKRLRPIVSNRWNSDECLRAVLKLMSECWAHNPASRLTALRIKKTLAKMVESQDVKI", "assay": "BRE-luciferase with constitutively active alk3 in H1299 cells", "assay_type": "cell-based", "conditions": "1 μM antagonist", "method": "To assess the effects of antagonists on a specific type I BMP receptor, 2 μg of constitutively active ca-alk3 and ca-alk6 expression vectors were co-transfected with the BRE-luciferase reporter into H1299 cells with Nucleofector II. Control cells were co-transfected with the pcDNA3 expression vector. After 48 hours the cells were treated with DMSO or a BMP receptor antagonist for 48 hours and luminescence was measured."}, "TGFβ receptor alk5": {"target": "T2, TGFβ receptor alk5 (Homo sapiens, UniProt P36897)", "T2 sequence (P36897 34-503)": "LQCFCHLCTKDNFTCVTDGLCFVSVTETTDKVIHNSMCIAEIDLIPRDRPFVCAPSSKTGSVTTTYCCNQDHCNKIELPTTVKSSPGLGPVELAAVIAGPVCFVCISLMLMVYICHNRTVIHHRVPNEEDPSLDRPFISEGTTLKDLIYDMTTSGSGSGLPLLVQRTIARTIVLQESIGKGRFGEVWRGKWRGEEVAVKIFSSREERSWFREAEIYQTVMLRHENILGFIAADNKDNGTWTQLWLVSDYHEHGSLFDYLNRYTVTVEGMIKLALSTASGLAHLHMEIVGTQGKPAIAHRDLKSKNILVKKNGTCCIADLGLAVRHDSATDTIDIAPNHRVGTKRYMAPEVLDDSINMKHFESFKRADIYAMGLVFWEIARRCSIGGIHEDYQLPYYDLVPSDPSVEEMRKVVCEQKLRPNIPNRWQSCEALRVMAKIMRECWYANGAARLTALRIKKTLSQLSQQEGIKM", "conditions": "compared with Dorsomorphin and LDN; cited from earlier work"}, "[2]": {"target": "platelet-derived growth factor receptor-β (Homo sapiens, UniProt P09619)", "sequence (P09619 33-1106, species assumed)": "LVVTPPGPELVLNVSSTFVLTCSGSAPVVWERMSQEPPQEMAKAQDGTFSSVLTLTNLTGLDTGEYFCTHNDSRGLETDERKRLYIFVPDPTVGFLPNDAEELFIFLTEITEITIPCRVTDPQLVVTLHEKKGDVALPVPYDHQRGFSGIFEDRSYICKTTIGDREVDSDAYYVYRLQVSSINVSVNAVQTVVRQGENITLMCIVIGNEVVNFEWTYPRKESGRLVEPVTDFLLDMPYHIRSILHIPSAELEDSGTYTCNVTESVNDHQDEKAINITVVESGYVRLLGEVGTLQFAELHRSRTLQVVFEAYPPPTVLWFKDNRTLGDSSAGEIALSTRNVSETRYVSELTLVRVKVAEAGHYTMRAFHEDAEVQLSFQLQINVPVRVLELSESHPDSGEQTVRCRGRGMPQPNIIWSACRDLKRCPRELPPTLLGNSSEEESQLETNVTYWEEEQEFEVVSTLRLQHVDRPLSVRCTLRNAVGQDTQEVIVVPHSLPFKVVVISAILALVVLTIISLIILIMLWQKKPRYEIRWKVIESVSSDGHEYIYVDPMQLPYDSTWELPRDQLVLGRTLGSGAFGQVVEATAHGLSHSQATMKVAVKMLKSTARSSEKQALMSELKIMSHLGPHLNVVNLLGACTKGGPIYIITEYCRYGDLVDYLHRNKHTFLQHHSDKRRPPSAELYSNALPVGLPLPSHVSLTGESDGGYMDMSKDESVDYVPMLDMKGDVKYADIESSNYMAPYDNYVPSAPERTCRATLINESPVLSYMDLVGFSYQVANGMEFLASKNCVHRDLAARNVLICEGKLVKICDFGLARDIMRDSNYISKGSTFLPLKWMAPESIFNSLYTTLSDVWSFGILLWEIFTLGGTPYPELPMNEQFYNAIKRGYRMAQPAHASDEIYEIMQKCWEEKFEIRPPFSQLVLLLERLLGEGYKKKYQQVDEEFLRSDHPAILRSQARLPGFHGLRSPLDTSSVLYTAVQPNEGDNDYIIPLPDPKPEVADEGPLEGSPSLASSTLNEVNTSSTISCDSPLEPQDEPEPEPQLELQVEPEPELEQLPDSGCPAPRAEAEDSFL", "conditions": "compared with Dorsomorphin and LDN; cited from earlier work"}, "A549 cells": {"tested_on": "A549 cells", "assay": "Cell counts after 7 days", "assay_type": "cell-based", "conditions": "DMEM 5% FCS, 10 μM Dorsomorphin or 1 μM DMH1, DMH2, LDN", "method": "Cell Counts. A549 and H1299 cells were plated into 6 well plates with 100,000 cells per well. Cells were treated with DMSO or a BMP receptor antagonist for 7 days. The cells were detached with trypsin, stained with trypan blue, and the number of live cells counted using a hemacytometer."}, "H1299 cells [3]": {"tested_on": "H1299 cells", "assay": "BrdU incorporation assay", "assay_type": "cell-based", "conditions": "1 μM or 5 μM", "method": "BrdU Assay. Thirty-thousand H1299 cells were plated into 96 well plates. The next day the cells were treated with 1 μM DMSO, 5 μM DMSO, 1 μM DMH2, or 5 μM DMH2 for 24 and 48 hours. BrdU incorporation was measured using the Cell Proliferation ELISA, BrdU colorimetric kit as per manufacture's instruction (Roche, Indianapolis, […]). Cells were incubated with BrdU labeling solution for 2 hours, fixed/denatured, and BrdU located with a peroxidase-conjugated anti-BrdU antibody. Knockdown of all type I BMP receptors were performed in the H1299 cells by transfecting siRNA for alk2, alk3, and alk6 or control siRNA. Three days after transfection BrdU incorporation was determined. Studies were performed 4 times in triplicate."}, "H1299 cells [4]": {"tested_on": "H1299 cells", "assay": "Trypan blue cell death counts", "assay_type": "cell-based", "conditions": "4 days"}}, "note": "“Also recorded” adds a separate entry of the source."}
{"molecule": "CN(C)CCCOc1ccc(-c2cnc3c(-c4ccnc5ccccc45)cnn3c2)cc1", "note": "[DMH2]", "values": [{"measurement": "inhibition of ca-alk3 activity (BRE-luciferase)", "setting": "[1]", "value": "greater reduction of alk3 activity than DMH1 and LDN; also recorded: significant inhibition"}, {"measurement": "activity for TGFβ receptor alk5 (comparison)", "setting": "TGFβ receptor alk5", "value": "less activity"}, {"measurement": "activity for platelet-derived growth factor receptor-β (comparison)", "setting": "[2]", "value": "less activity"}, {"measurement": "cell growth (number of cells)", "setting": "A549 cells", "value": "significantly more growth inhibition than DMH1"}, {"measurement": "proliferation (BrdU incorporation)", "setting": "H1299 cells [3]; 24 hours", "value": "dose dependent decrease in proliferation"}, {"measurement": "proliferation (BrdU incorporation)", "setting": "H1299 cells [3]; 48 hours", "value": "more profound effect"}, {"measurement": "percentage of dead cells (trypan blue)", "setting": "H1299 cells [4]; H1299 cultured in SFM, 1 μM, compared with DMEM 5% FCS", "value": "even higher"}, {"measurement": "cell death (percentage of dead cells, trypan blue)", "setting": "H1299 cells [4]; H1299 in DMEM 5% FCS, 1 μM and 5 μM", "value": "significant increased in cell death, which was dose dependent"}]}
